Measurements as given in patent US20150133456A1, “FLUOROERGOLINE DERIVATIVES AND USES THEREOF” (MAP PHARMACEUTICALS, INC., priority 2012, published 2015).

Key:
human 5-HT2B receptor [1] = target: T1, human 5-HT2B receptor (Homo sapiens, UniProt P41595); test: Aequorin assay, antagonist activity at 5-HT2B; type: cell-based; settings: reference agonist at its EC80; read-out: IC50, 5-HT2B antagonism
T1 construct: host or cells: CHO-K1 coexpressing mitochondrial apoaequorin
Description: Percentage inhibition values were determined for 2-CF3 dihydroergotamine on the 5-HT2B receptor.

D2 receptor = target: T2, D2 receptor (Homo sapiens, UniProt P14416); test: Agonist activity at the D2 receptor; type: cell-based; settings: read-out: EC50, D2 receptor agonism
T2 construct: expressed in transfected cells
Description: The assay was performed analogously to the assay described in Example 4.

[2] = Metabolism in human liver microsomes; settings: 1 μM, 0.2 mg protein/mL, 0 to 60 minutes
Description: Metabolism of dihydroergotamine (DHE) and 2-CF3 DHE was evaluated in human liver microsomes. DHE mesylate and 2-CF3 DHE mesylate (1 μM each) were incubated separately with human liver microsomes (0.2 mg protein/mL) in triplicate at 37° C. in 0.2 mL (final volume) incubation buffer (50 mM potassium phosphate buffer, pH 7.4, 3 mM MgCl2 and 1 mM EDTA, pH7.4) with or without cofactor, NADPH-generating system. The NADPH-generating system consisted of 1 mM NADP, pH 7.4, 5 mM glucose-6-phosphate, pH 7.4 and 1 unit/mL glucose-6-phosphate dehydrogenase. DHE was added to the incubation mixtures in water. 2-CF3-DHE was added to incubation mixtures in 50:50 (v:v) acetonitrile:water. A low level of acetonitrile in the incubation was maintained to avoid any solvent effects on enzyme activity (typically at 0.5% or lower). Reactions were initiated by the addition of the NADPH-generating system and were terminated at 0, 15, 30 and 60 minutes after initiation by the addition of […], of stop reagent (acetonitrile) containing two internal standards (4′-hydroxydiclofenac-d4 and 1′-hydroxymidazolam-d4, 200 and 50 ng/mL in the final stopped incubation, respectively). The samples were then centrifuged and the supernatant fractions were analyzed by LC/MS/MS to quantify the formation of 8′-OH-DHE (metabolite) in the DHE samples and DHE and 8′-OH-DHE in the 2-CF3-DHE samples.

human 5-HT2B receptor [3] = target: T1, human 5-HT2B receptor; test: Aequorin assay, agonist activity at 5-HT2B; type: cell-based; settings: reference agonist; read-out: EC50, 5-HT2B agonism
Description: Percentage activation values were determined for 2-CF3 dihydroergotamine at the 5-HT2B receptor.

T1 sequence (P41595 whole entry): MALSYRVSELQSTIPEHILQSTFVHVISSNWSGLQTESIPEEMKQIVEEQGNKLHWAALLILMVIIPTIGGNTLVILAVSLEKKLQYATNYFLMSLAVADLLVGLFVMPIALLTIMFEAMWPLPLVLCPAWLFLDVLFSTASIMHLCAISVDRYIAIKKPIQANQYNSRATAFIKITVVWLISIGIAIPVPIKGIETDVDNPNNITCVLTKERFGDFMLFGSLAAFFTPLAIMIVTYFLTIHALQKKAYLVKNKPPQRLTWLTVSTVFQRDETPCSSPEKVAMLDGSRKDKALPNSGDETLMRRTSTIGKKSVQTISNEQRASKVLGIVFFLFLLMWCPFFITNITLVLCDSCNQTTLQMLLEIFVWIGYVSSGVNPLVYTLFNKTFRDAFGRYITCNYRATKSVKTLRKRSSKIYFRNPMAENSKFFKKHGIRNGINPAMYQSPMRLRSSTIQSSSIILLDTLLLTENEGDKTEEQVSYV
T2 sequence (P14416 whole entry): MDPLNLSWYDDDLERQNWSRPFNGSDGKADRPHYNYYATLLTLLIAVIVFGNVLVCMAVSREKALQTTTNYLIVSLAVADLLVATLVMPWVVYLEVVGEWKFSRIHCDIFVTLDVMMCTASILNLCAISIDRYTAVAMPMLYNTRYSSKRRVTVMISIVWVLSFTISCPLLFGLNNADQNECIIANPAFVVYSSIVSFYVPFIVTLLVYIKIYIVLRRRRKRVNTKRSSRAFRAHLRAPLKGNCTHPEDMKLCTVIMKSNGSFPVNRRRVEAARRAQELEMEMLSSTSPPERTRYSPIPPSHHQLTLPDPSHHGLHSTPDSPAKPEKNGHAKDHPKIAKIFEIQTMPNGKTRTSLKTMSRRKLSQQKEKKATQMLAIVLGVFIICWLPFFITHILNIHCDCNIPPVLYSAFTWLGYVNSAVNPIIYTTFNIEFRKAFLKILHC

**Q.** Which IC50 (human 5-HT2B receptor [1]) does the source give for `Cc1cc(NC(=O)Nc2ccc3c(ccn3C)c2)sn1` [SB204741, reference compound] here?
**A.** 28.8 nM

**Q.** Which EC50 (D2 receptor) does the source give for `CN1C[C@H](C(=O)N[C@]2(C)O[C@@]3(O)[C@@H]4CCCN4C(=O)[C@H](Cc4ccccc4)N3C2=O)C[C@@H]2c3cccc4[nH]cc(c34)C[C@H]21` [dihydroergotamine, reference compound] here?
**A.** 8.35 nM

**Q.** And the “metabolism by human liver microsomes in the presence of NADPH” value [2]?
**A.** extensively metabolized

**Q.** For `CC(N)Cc1c[nH]c2ccc(O)cc12` (stereo not drawn) [α-methyl-5-HT, reference compound], which EC50 (human 5-HT2B receptor [3]) is on record?
**A.** 1.01 nM
